Laboratory results taken from patent US6709818B1, “Methods of diagnosing and treating hepatic cell proliferative disorders” (The Johns Hopkins University School of Medicine, priority 1999, dated 2004).
“Also recorded” adds a separate entry of the source.

Legend:
[1] = tested on: GSTP1 promoter alleles; experiment: Southern blot analysis of GSTP1 "CpG island" DNA hypermethylation in Hep3B cells treated with 5-aza-dC; assay type: cell-based, human; conditions: Hep3B HCC cells treated in vitro, 72 hours
Procedure: DNA isolated from Hep3B cells before and after exposure to 5-aza-dC in vitro was assessed for GSTP1 “CpG island” DNA hypermethylation using Southern blot analysis. Purified DNAs were digested first with HindIII and EcoRI and then extensively with the ^5-mC-sensitive restriction endonuclease BssHII. Digested DNAs were then electrophoresed on agarose gels, transferred to Zeta-Probe (DioRad) membranes, and then hybridized with ^32P-labeled GSTP1 cDNA DNA isolated from Hep3B HCC cells and from HCC and adjacent non-neoplastic tissues was also subjected to analysis for GSTP1 “CpG island” DNA hypermethylation using a ^5-mC-sensitive restriction endonuclease-polymerase chain reaction (PCR) strategy that permitted both detection of CpG dinucleotide methylation and simultaneous discrimination of maternal and paternal alleles in informative cases. […] To facilitate detection of the PCR amplification products, the downstream primer was end-labeled with [γ-^32P]ATP (Amersham) using T4 polynucleotide kinase (New England BioLabs). PCR was conducted by incubation at 95° C. for 1 min, 63° C. for 3 min, and 72° C. for 1.5 min, for 30 cycles followed by a final extension at 72° C. for 8 min. […]

[2] = tested on: GSTP1 expression in Tsu-Prl PCA cells; experiment: GSTP1 expression in Tsu-Prl PCA cells treated with 5-aza-dC; assay type: cell-based, human; conditions: Tsu-Prl PCA cells (unmethylated GSTP1 promoter alleles), treated as for Hep3B
Source text: Assessment of GSTP1 expression.

[3] = tested on: GSTP1 mRNA expression in Hep3B HCC cells; experiment: Northern blot analysis of GSTP1 mRNA expression by Hep3B cells treated with 5-aza-dC; conditions: for GSTP1 mRNA expression (Northern blot): Hep3B HCC cells treated in vitro, 72 hours

Nc1ncn([C@H]2C[C@H](O)[C@@H](CO)O2)c(=O)n1 [5-aza-dC, 5-aza-deoxycytidine]
GSTP1 "CpG island" / promoter allele methylation (Southern blot, BssHII digestion) [1]: appearance of unmethylated GSTP1 promoter alleles
GSTP1 "CpG island" / promoter allele methylation (Southern blot, BssHII digestion) ([1]; listed as 5-aza-deoxycytidine): reversed GSTP1 “CpG island” hypermethylation
modulation of GSTP1 expression [2]: no modulation of GSTP1 expression was evident
time at which GSTP1 mRNA expression began to appear ([3]; Hep3B HCC cells exposed for as long as 72 hours): ≤ 24 h
GSTP1 mRNA expression (Northern blot) [3]: reactivation of GSTP1 mRNA expression; also recorded: appearance of detectable GSTP1 mRNA
GSTP1 mRNA expression (Northern blot) ([3]; listed as 5-aza-deoxycytidine): restored GSTP1 expression
